ChEMBL document CHEMBL4368895, “Incorporation of an intramolecular hydrogen bonding motif in the side chain of antimalarial benzimidazoles” (Medchemcomm, 2019)
Converted amounts (≈) assume the structure as drawn.

Legend:
[1] = system: Plasmodium falciparum; assay: Antiplasmodium activity against chloroquine-sensitive Plasmodium falciparum NF54 asexual blood stage forms infected in human erythrocytes assessed as reduction in [3H]-hypoxanthine incorporation incubated for 48 hrs by liquid scintillation counting method; assay type: functional, organism-based
[2] = system: Plasmodium falciparum; assay: Antiplasmodium activity against multidrug resistant Plasmodium falciparum K1 asexual blood stage forms infected in human erythrocytes assessed as reduction in [3H]-hypoxanthine incorporation incubated for 48 hrs by liquid scintillation counting method; assay type: functional, organism-based
[3] = system: CHO; assay: Cytotoxicity in CHO cells assessed as reduction in cell viability by MTT assay; assay type: cell-based; details: Cricetulus griseus
[4] = Selectivity index, ratio of IC50 for cytotoxicity in CHO cells to IC50 for antiplasmodium activity against chloroquine-sensitive Plasmodium falciparum NF54 asexual blood stage forms infected in human erythrocytes; assay type: toxicity, cell-based; details: Chinese hamster, read-out: Ratio IC50
[5] = system: Hemozoin; assay: Inhibition of beta-hematin formation assessed as reduction in hemozoin formation incubated for 5 hrs by NP40 detergent-based assay
[6] = Kinetic solubility in pH 7.4 PBS at 0.125 to 8 mM incubated for 2 hrs by turbidimetric kinetic solubility assay; assay type: physicochemical; details: read-out: Kinetic_solubility

CCN(CCNc1nc2ccccc2[nH]1)Cc1cc(Cl)cc(Cl)c1O
IC50 [1]: 0.4 µM
IC50 [2]: 1.4 µM
IC50 [3]: 50 µM
selectivity ratio [4]: 125
IC50 [5]: 30 µM
solubility kinetic at 2 h [6]: 160 µM (≈ 60.7 µg/mL)

CCN(CCNc1nc2ccccc2[nH]1)Cc1cc(Cl)ccc1O
IC50 [1]: 0.11 µM
IC50 [2]: 0.762 µM
IC50 [3]: 25.1 µM
selectivity ratio [4]: 228
IC50 [5]: 125 µM
solubility kinetic at 2 h [6]: 160 µM (≈ 55.2 µg/mL)

CCN(CCNc1nc2ccccc2[nH]1)Cc1cc(C#N)ccc1O
IC50 [1]: 0.968 µM
IC50 [2]: > 10 µM
IC50 [3]: 50 µM
selectivity ratio [4]: 52
IC50 [5]: 250 µM
solubility kinetic at 2 h [6]: 160 µM (≈ 53.7 µg/mL)

CCN(CCNc1nc2ccccc2[nH]1)Cc1cc(OC)ccc1O
IC50 [1]: 0.32 µM
IC50 [2]: 3.04 µM
IC50 [3]: 50 µM
selectivity ratio [4]: 156
IC50 [5]: 489 µM
solubility kinetic at 2 h [6]: 160 µM (≈ 54.5 µg/mL)

CCN(CCNc1nc2ccccc2[nH]1)Cc1ccccc1O
IC50 [1]: 0.474 µM
IC50 [2]: 2.66 µM
IC50 [3]: 50 µM
selectivity ratio [4]: 105
IC50 [5]: 452 µM
solubility kinetic at 2 h [6]: > 200 µM

CCN(CCNc1nc2ccccc2[nH]1)Cc1cccnc1O
IC50 [1]: > 10 µM
IC50 [2]: > 10 µM
IC50 [3]: 50 µM
solubility kinetic at 2 h [6]: > 200 µM

CCN(CCNc1nc2ccccc2[nH]1)Cc1cccc(F)c1O
IC50 [1]: 0.299 µM
IC50 [2]: 1.49 µM
IC50 [3]: 50 µM
selectivity ratio [4]: 167
IC50 [5]: 161 µM
solubility kinetic at 2 h [6]: 160 µM (≈ 52.5 µg/mL)

CCN(CCNc1nc2ccccc2[nH]1)Cc1cc(C)ccc1O
IC50 [1]: 0.408 µM
IC50 [2]: 2.43 µM
IC50 [3]: 24.5 µM
selectivity ratio [4]: 60
IC50 [5]: 4220 µM
solubility kinetic at 2 h [6]: > 200 µM

CCN(CCNc1nc2ccccc2[nH]1)Cc1cccc(Cl)c1O
IC50 [1]: 0.521 µM
IC50 [2]: 1.25 µM
IC50 [3]: 50 µM
selectivity ratio [4]: 96
IC50 [5]: 130 µM
solubility kinetic at 2 h [6]: 160 µM (≈ 55.2 µg/mL)

CCN(CCNc1nc2ccccc2[nH]1)Cc1ccc(Cl)cc1O
IC50 [1]: 0.079 µM
IC50 [2]: 0.335 µM
IC50 [3]: 21.6 µM
selectivity ratio [4]: 273
IC50 [5]: 32 µM
solubility kinetic at 2 h [6]: 160 µM (≈ 55.2 µg/mL)

CCN(CCNc1nc2ccccc2[nH]1)Cc1ccccc1
IC50 [1]: 3.6 µM
IC50 [2]: 1.88 µM
solubility kinetic at 2 h [6]: 140 µM (≈ 41.2 µg/mL)

CC[C@H]1CN2CCc3cc(OC)c(OC)cc3[C@@H]2C[C@@H]1C[C@H]1NCCc2cc(OC)c(OC)cc21 [EMETINE]
IC50 [3]: 0.059 µM

CCN(CCNc1nc2ccccc2[nH]1)Cc1cc(F)cc(F)c1O
IC50 [1]: 0.222 µM
IC50 [2]: 0.952 µM
IC50 [3]: 50 µM
selectivity ratio [4]: 225
IC50 [5]: 68 µM
solubility kinetic at 2 h [6]: 140 µM (≈ 48.5 µg/mL)

C[C@H]1[C@H](OC(=O)CCC(=O)O)O[C@@H]2O[C@@]3(C)CC[C@H]4[C@H](C)CC[C@@H]1[C@@]24OO3 [ARTESUNATE]
IC50 [1]: 0.007 µM
